For test [1], the target named is T1, GKRP (Glucokinase Regulatory Protein) with human His-hepatic GK (Homo sapiens, UniProt Q14397).
T1 sequence (Q14397 1-625): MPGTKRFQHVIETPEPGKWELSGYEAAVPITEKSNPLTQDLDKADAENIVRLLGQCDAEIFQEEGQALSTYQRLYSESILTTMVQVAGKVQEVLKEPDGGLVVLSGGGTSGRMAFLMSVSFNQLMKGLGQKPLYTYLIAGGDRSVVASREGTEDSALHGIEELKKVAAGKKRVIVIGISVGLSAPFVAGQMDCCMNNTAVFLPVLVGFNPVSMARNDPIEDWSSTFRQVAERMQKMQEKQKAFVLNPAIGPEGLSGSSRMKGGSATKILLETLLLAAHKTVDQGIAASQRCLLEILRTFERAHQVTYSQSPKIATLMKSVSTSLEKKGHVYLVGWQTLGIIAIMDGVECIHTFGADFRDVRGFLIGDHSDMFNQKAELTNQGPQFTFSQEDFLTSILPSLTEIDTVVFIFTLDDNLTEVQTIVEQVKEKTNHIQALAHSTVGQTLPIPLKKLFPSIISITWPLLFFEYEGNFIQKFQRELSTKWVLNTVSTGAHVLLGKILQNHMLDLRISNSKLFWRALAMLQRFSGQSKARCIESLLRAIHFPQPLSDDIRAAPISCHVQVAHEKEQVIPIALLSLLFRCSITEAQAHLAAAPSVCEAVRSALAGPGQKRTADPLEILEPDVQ
As to the kind of experiment: GKRP NADPH Coupled Assay. The class given is biochemical. The following applies: indirect measure of glucose-6-phosphate, fluorescence, 1 μM GKRP (10×), 20 nM GK (5×). The protocol:
(§1) This assay is used to directly measure the formation of ^13C-glucose-6-phosphate from ^13C-glucose by liquid chromatography-mass spectrometry (LC MS/MS). Begin by preparing the following solutions: Compound Buffer (CB): 50 mM Tris, pH 7.5/4 mM MgCl2/6% DMSO/fresh 10 mM DTT from 1M frozen stock. Enzyme Buffer (EB): 50 mM Tris, pH 7.5/4 mM MgCl2/6% DMSO/fresh 0.1% BSA/fresh 0.01% Brij-35 (10% BSA and 1% Brij-35 stock). GK (Glucokinase) Working Stock (5×): Dilute human His-hepatic GK to 30 nM in EB buffer. […] After 30 minutes add 10 μl of GK Working Stock (5×). Re-seal the plate and incubate for another 30 minutes at room temperature while mixing. After the second 30 minutes, stop the reaction by the addition of 50 μl of 100% acetonitrile, seal, and mix for 5-10 minutes. Run 10 μl of this sample through the LC MS/MS (API 3200, Applied Biosystems Inc., Carlsbad, Calif.).
This assay is used as an indirect measure of glucose-6-phosphate (G6P) formed from glucose due to the enzymatic activity of glucokinase. Assay format is the same as for GKRP LC MS/MS Biochemical Assay with the following exceptions. GK Working Stock (5×): Dilute human His-hepatic GK to 20 nM in EB buffer. Stop & Detection Reagent (2×): Dilute β-nicotinamide adenine dinucleotide phosphate sodium salt (β-NADP) (Aldrich-Sigma, St. Louis, Mo.) to 2 mM from 100 mM stock (stock in 10 mM Tris, pH 9.2) and dilute glucose-6-phosphate dehydrogenase (Aldrich-Sigma, St. Louis, Mo.) to 0.04 Unit/μl from 10 Unit/μl (stock in 10 mM Tris pH 7.5/0.05% Brij-35) in 0.2 M Tris, pH 9.2/8% DMSO. After the initial 30 minute incubation add 10 μl of 20 nM GK diluted in EB (5×). Re-seal the plate and incubate for another 1 hour at room temperature while mixing. After 1 hour remove the seal and add 50 μl of Stop & Detection Reagent and incubate for 5 minutes at room temperature while mixing.

For test [2], the target named is T1, GKRP (Glucokinase Regulatory Protein) with human His-hepatic GK. The test can be described thus: GKRP LC MS/MS Biochemical Assay. The following applies: 13C-glucose-6-phosphate formation, 1 μM GKRP (10×), 30 nM GK (5×). On the procedure: GKRP LC MS/MS Biochemical Assay
as §1

Where [3] appears, read: read-out: GK-GKRP EC50 (NADPH-coupled).
[4] abbreviates: read-out: GK-GKRP EC50 (LC MS/MS).

SMILES strings stand for the structures. pEC50: −log10 of the molar value. Counter-ions that a name gives are not always drawn.

Take `O=S(=O)(c1cccs1)N1CCN(c2ccc(C(O)(C(F)(F)F)C(F)(F)F)cc2-c2ccccc2)CC1` [Example 69, 1,1,1,3,3,3-hexafluoro-2-(6-(4-(2-thiophenylsulfonyl)-1-piperazinyl)-3-biphenylyl)-2-propanol trifluoroacetate]: the pEC50 is 5.67 in test [1] (GK-GKRP EC50 (NADPH-coupled)) and 5.76 in test [2] (GK-GKRP EC50 (LC MS/MS)).
The like results for `C[C@H]1CN(S(=O)(=O)c2ccccc2)CCN1c1ccc(C(O)(C(F)(F)F)C(F)(F)F)cc1` [Example 12, 1,1,1,3,3,3-hexafluoro-2-(4-((2S)-2-methyl-4-(phenylsulfonyl)-1-piperazinyl)phenyl)-2-propanol] were, in that order, 6.09 and 6.05.
The corresponding values for `CC(O)(c1ccc(N2CCN(S(=O)(=O)c3cccs3)CC2Cc2ccccc2F)cc1)C(F)(F)F` (mixture of isomers) [Example 38, 1,1,1-trifluoro-2-(4-(2-(2-fluorobenzyl)-4-(2-thiophenylsulfonyl)-1-piperazinyl)phenyl)-2-propanol] are 6.29 and 6.07.
Consider `CC(O)(c1ccc(N2CCN(S(=O)(=O)c3ccccc3)CC2)cc1)C(F)(F)F` (single isomer, unassigned) [Example 24 Peak #1, 1,1,1-trifluoro-2-(4-(4-(phenylsulfonyl)-1-piperazinyl)phenyl)-2-propanol], for which the figures for the pEC50 in test [1] (GK-GKRP EC50 (NADPH-coupled)) and in test [2] (GK-GKRP EC50 (LC MS/MS)) were 5.59 and 5.68, respectively.
The corresponding values for `O=S(=O)(c1cccs1)N1CCN(c2ccc(C(O)(C(F)(F)F)C(F)(F)F)cc2)[C@@H](Cc2ccccc2)C1` [Example 64, 2-(4-((2S)-2-benzyl-4-(2-thiophenylsulfonyl)-1-piperazinyl)phenyl)-1,1,1,3,3,3-hexafluoro-2-propanol] are 6.51 and 6.11.
With `Cc1ccccc1S(=O)(=O)N1CCN(c2ccc(C(O)(C(F)(F)F)C(F)(F)F)cc2)CC1` [Example 4, 1,1,1,3,3,3-hexafluoro-2-(4-(4-((2-methylphenyl)sulfonyl)-1-piperazinyl)phenyl)-2-propanol], the pEC50 in test [1] (GK-GKRP EC50 (NADPH-coupled)) was 5.90; in test [2] (GK-GKRP EC50 (LC MS/MS)), 5.77.
Regarding `CC(O)(c1ccc(N2CCN(S(=O)(=O)c3cccs3)CC2CC2CCCCC2)cc1)C(F)(F)F` (mixture of isomers) [Example 58, 2-(4-(2-(cyclohexylmethyl)-4-(2-thiophenylsulfonyl)-1-piperazinyl)phenyl)-1,1,1-trifluoro-2-propanol], the pEC50 in test [1] (setting [3]) was 6.00; in test [2] (setting [4]) it was 5.88.
Take `CC(O)(c1ccc(N2CCN(S(=O)(=O)c3cccs3)CC2COCc2cccnc2)cc1)C(F)(F)F` (mixture of isomers) [Example 59, 1,1,1-trifluoro-2-(4-(2-((3-pyridinylmethoxy)methyl)-4-(2-thiophenylsulfonyl)-1-piperazinyl)phenyl)-2-propanol]: the pEC50 in test [1] (GK-GKRP EC50 (NADPH-coupled)) and in test [2] (GK-GKRP EC50 (LC MS/MS)) was 5.31 in each case.
Regarding `O=S(=O)(c1cccs1)N1CCN(c2ccc(C(O)(C(F)(F)F)C(F)(F)F)cc2-c2cccnc2)CC1` [Example 72, 1,1,1,3,3,3-hexafluoro-2-(3-(3-pyridinyl)-4-(4-(2-thiophenylsulfonyl)-1-piperazinyl)phenyl)-2-propanol], the pEC50 in test [1] (GK-GKRP EC50 (NADPH-coupled)) and in test [2] (GK-GKRP EC50 (LC MS/MS)) was 6.11 throughout.
For `Cc1ccc(S(=O)(=O)N2CCN(c3ccc(C(O)(C(F)(F)F)C(F)(F)F)cc3)CC2)s1` [Example 8, 1,1,1,3,3,3-hexafluoro-2-(4-(4-((5-methyl-2-thiophenyl)sulfonyl)-1-piperazinyl)phenyl)-2-propanol], the pEC50 in test [1] (GK-GKRP EC50 (NADPH-coupled)) was 5.34; in test [2] (GK-GKRP EC50 (LC MS/MS)), 4.94.
The corresponding values for `C[C@H]1CN(S(=O)(=O)c2nccs2)CCN1c1ccc(C(C)(O)C(F)(F)F)cc1` (single isomer, unassigned) [Example 34 Peak #2] are 5.71 and 5.72.
Take `CC(O)(c1ccc(N2CCN(S(=O)(=O)c3cccs3)CC2CC2CCOCC2)cc1)C(F)(F)F` (single isomer, unassigned) [Example 37 Peak #1, 1,1,1-trifluoro-2-(4-(2-(tetrahydro-2H-pyran-4-ylmethyl)-4-(2-thiophenylsulfonyl)-1-piperazinyl)phenyl)-2-propanol]: the results for the pEC50 in test [1] (GK-GKRP EC50 (NADPH-coupled)) and in test [2] (GK-GKRP EC50 (LC MS/MS)) were 6.95 and 6.79, respectively.
As to `O=S(=O)(c1ccccc1F)N1CCN(c2ccc(C(O)(C(F)(F)F)C(F)(F)F)cc2)CC1` [Example 6, 1,1,1,3,3,3-hexafluoro-2-(4-(4-((2-fluorophenyl)sulfonyl)-1-piperazinyl)phenyl)-2-propanol], the pEC50 in test [1] (GK-GKRP EC50 (NADPH-coupled)) was 5.73; in test [2] (GK-GKRP EC50 (LC MS/MS)), 5.82.
With `CC(O)(c1ccc(N2CCN(S(=O)(=O)c3cccs3)CC2CN2CCC(F)(F)CC2)cc1)C(F)(F)F` (mixture of isomers) [Example 51, 2-(4-(2-((4,4-difluoro-1-piperidinyl)methyl)-4-(2-thiophenylsulfonyl)-1-piperazinyl)phenyl)-1,1,1-trifluoro-2-propanol], the pEC50 in test [1] (GK-GKRP EC50 (NADPH-coupled)) was 5.98; in test [2] (GK-GKRP EC50 (LC MS/MS)), 5.82.
The corresponding values for `O=S(=O)(c1nccs1)N1CCN(c2ccc(C(O)(C(F)(F)F)C(F)(F)F)cc2)CC1` [Example 33, 1,1,1,3,3,3-hexafluoro-2-(4-(4-(1,3-thiazol-2-ylsulfonyl)-1-piperazinyl)phenyl)-2-propanol trifluoroacetate] are 6.18 and 6.07.
The corresponding values for `C[C@H]1CN(S(=O)(=O)c2ccccc2)CCN1c1ccc(C(C)(O)C(F)(F)F)cc1` (mixture of isomers) [Example 28, 1,1,1-trifluoro-2-(4-((2S)-2-methyl-4-(phenylsulfonyl)-1-piperazinyl)phenyl)-2-propanol] are 5.51 and 5.40.
The like results for `CC1(C#Cc2cc(C(C)(O)C(F)(F)F)ccc2N2CCN(S(=O)(=O)c3cccs3)CC2)COC1` (racemic) [Example 75, 1,1,1-trifluoro-2-(3-((3-methyl-3-oxetanyl)ethynyl)-4-(4-(2-thiophenylsulfonyl)-1-piperazinyl)phenyl)-2-propanol] were, in that order, 5.54 and 5.55.
Regarding `CC(O)(c1ccc(N2CCN(S(=O)(=O)c3cccs3)CC2c2cc(Cl)ccc2Cl)cc1)C(F)(F)F` (mixture of isomers) [Example 13, 2-(4-(2-(2,5-dichlorophenyl)-4-(2-thiophenylsulfonyl)-1-piperazinyl)phenyl)-1,1,1-trifluoro-2-propanol], the pEC50 is 5.58 in test [1] (GK-GKRP EC50 (NADPH-coupled)) and 5.71 in test [2] (GK-GKRP EC50 (LC MS/MS)).
Regarding `CC(O)(c1ccc(N2CCN(S(=O)(=O)c3cccs3)CC2Cc2ccncc2)cc1)C(F)(F)F` (mixture of isomers) [Example 76, 1,1,1-trifluoro-2-(4-(2-(4-pyridinylmethyl)-4-(2-thiophenylsulfonyl)-1-piperazinyl)phenyl)-2-propanol trifluoroacetate], the pEC50 in test [1] (GK-GKRP EC50 (NADPH-coupled)) is 6.68; in test [2] (GK-GKRP EC50 (LC MS/MS)) it was 6.28.
Take `CC(C)(CO)NCC1CN(S(=O)(=O)c2cccs2)CCN1c1ccc(C(C)(O)C(F)(F)F)cc1` (mixture of isomers) [Example 54, 2-methyl-2-(((4-(2-thiophenylsulfonyl)-1-(4-(2,2,2-trifluoro-1-hydroxy-1-methylethyl)phenyl)-2-piperazinyl)methyl)amino)-1-propanol]: the results for the pEC50 in test [1] (setting [3]) and in test [2] (setting [4]) were 5.53 and 5.56, respectively.

The values above are taken from patent US8431563B2 (priority 2010, dated 2013).
